Results taken from paper PMC7660689, “Catechol-Type Flavonoids from the Branches of Elaeagnus glabra f. oxyphylla Exert Antioxidant Activity and an Inhibitory Effect on Amyloid-β Aggregation” (Molecules, 2020).

Tests used:
[1] = ABTS radical scavenging assay; conditions: for ABTS radical scavenging activity: compounds at 100 μM; for Concentration at which ABTS radical scavenging activity reached 100% / IC50: isolated compounds; for IC50: 1.5625-100 µM
Experimental: ABTS and DPPH radical scavenging assays were performed with reference to the modified method described in previously published reports to examine the antioxidant activities. […] Subsequently, the reactant was diluted 25-fold to adjust its absorbance at 734 nm to 0.7 by using a spectrophotometer (Benchmark Plus, Bio-Rad, Hercules, CA). […] The absorbance was measured at 517 nm. Ascorbic acid was used as a positive control for antioxidative activity.

Aβ1–42 peptides = molecular target: T1, Aβ1–42 peptides (Homo sapiens, UniProt P05067); test: Thioflavin T (ThT) Aβ aggregation assay; format: biochemical; conditions: for Inhibition of Aβ aggregation compared with positive control morin: compounds at 100 μM, morin 100 μM; for IC50: isolated compounds, 6.25-100 µM, ThT fluorescence, read-out: Inhibition of Aβ aggregation IC50
T1 construct: purchased AnaSpec
Experimental: To measure the inhibitory effect on Aβ1–42 aggregation, the SensoLyte® Thioflavin T (ThT) β-Amyloid aggregation kit (AnaSpec, Fremont, CA, USA) was used according to the modified manufacturer’s instructions. This assay is based on the property of ThT dye that increases fluorescence when bound to the aggregates of Aβ1–42 peptides. The detailed protocol is described in a previous report. Morin (100 μM) was used as a positive control for the inhibition of Aβ aggregation. Experiments were performed in triplicate and independently repeated three times. The inhibition rate (%) of Aβ aggregation was calculated according to the following equation:(1) Inhibition of Aβ aggregation %=1−Fluorescence of Aβ−treated sample/Fluorescence of untreated sample×100

[2] = DPPH radical scavenging assay; conditions: for DPPH radical scavenging activity: concentrations from 1.5625 to 100 µM; for IC50: isolated compounds, 1.5625-100 µM
Experimental: ABTS and DPPH radical scavenging assays were performed with reference to the modified method described in previously published reports to examine the antioxidant activities. In the ABTS assay, 7 mM ABTS aqueous solution and 2.45 mM potassium persulfate were reacted for 12–16 h in the dark at room temperature to prepare the ABTS^•+ solution. Subsequently, the reactant was diluted 25-fold to adjust its absorbance at 734 nm to 0.7 by using a spectrophotometer (Benchmark Plus, Bio-Rad, Hercules, CA). The sample solution (100 μL) and ABTS^•+ solution (100 μL) were mixed and incubated for 5 min at room temperature in the dark.
To determine the DPPH radical scavenging activity, the sample solution (100 μL) and 0.15 mM DPPH solution (100 μL) were mixed and incubated for 3 h at room temperature in the dark. The absorbance was measured at 517 nm. Ascorbic acid was used as a positive control for antioxidative activity. The radical scavenging activity (%) was calculated using the following equation:(2) Radical scavenging activity %=1−Absorbance of sample/Absorbance of control × 100

T1 sequence (P05067 672-713 limits assumed): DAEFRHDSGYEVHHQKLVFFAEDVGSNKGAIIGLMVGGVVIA

Inhibition of Aβ aggregation compared with positive control morin (Aβ1–42 peptides)	IC50 (Aβ1–42 peptides)	IC50 [1]	IC50 [2]	SMILES	ABTS radical scavenging activity [1]	Concentration at which ABTS radical scavenging activity reached 100% [1]	DPPH radical scavenging activity [2]	melting point
				O=C(O)c1ccc(O)cc1 [Compound 1, 4-hydroxybenzoic acid]	< 66%			
				O=C(O)c1ccccc1O [Compound 2, salicylic acid]	< 66%			
comparably to morin	14.6 µM	3.21 µM	54.9 µM	Oc1cc(O)c2c(c1)O[C@H](c1ccc(O)c(O)c1)[C@@H](O)[C@@H]2c1c(O)cc(O)c2c1O[C@H](c1ccc(O)c(O)c1)[C@@H](O)C2 [Compound 8, procyanidin B3]		12.5 µM	< 52%	
comparably to morin	32.6 µM	3.44 µM	> 100 µM	Oc1cc(O)c2c(c1)O[C@H](c1ccc(O)c(O)c1)[C@@H](O)[C@@H]2c1c(O)cc(O)c2c1O[C@H](c1ccc(O)c(O)c1)[C@H](O)C2 [Compound 9, procyanidin B4]		12.5 µM	< 52%	
comparably to morin	44.5 µM	4.61 µM	> 100 µM	O=C(C=Cc1ccc(O)cc1)OCC1OC(Oc2c(-c3ccc(O)c(O)c3)oc3cc(O)cc(O)c3c2=O)C(O)C(O)C1O (stereo not drawn) [Compound 13, helichrysoside]		25 µM	< 52%	
				C=C(C)[C@@H]1CC[C@]2(C(=O)O)CC[C@]3(C)C(CCC4[C@@]5(C)CC[C@H](OC(=O)/C=C/c6ccc(O)c(O)c6)C(C)(C)C5CC[C@]43C)C12 (stereo partly drawn) [Compound 14, betulinic acid-3-O-trans-caffeate]	< 66%			270 °C
				C[C@@H]1CC[C@]2(C(=O)O)CC[C@]3(C)C(=CCC4[C@@]5(C)CC[C@H](OC(=O)/C=C/c6ccc(O)c(O)c6)C(C)(C)C5CC[C@]43C)C2[C@H]1C (stereo partly drawn) [Compound 15, ursolic acid-3-O-trans-caffeate]	< 66%			> 300 °C
